In brackets after ≈: the same amount, converted by molar mass.
Experiments:
Pf DHFR WT = biological target: T1, Pf DHFR WT (Plasmodium falciparum, UniProt A7UD81); assay: Pf DHFR enzyme inhibition (Ki), wild type; assay type: biochemical
T1 construct: made in house; host or cells: E. coli BL21(DE3)pLysS

[1] = Oral bioavailability and pharmacokinetics in male Sprague Dawley rats; assay type: in vivo; details: for Oral BA: i.v. and oral dosing; for Vd: intravenous; for clearance: read-out: i.v. CL(plasma)
Protocol: Rats had free access to water throughout the pre- and post-dose sampling period, and access to food was re-instated 4 hours post-dosing. Test compounds were administered intravenously as a 5 minute constant rate infusion (1.0 mL per rat) and orally by gavage (1.0 mL per rat). The IV formulations were typically buffered aqueous solutions containing a co-solvent if required for solubilization. The oral formulations were prepared as suspensions in hydroxypropylmethyl cellulose or carboxymethyl cellulose, each with the addition of Tween 80 and benzyl alcohol. Samples of arterial blood and total urine were collected up to 24 hours post-dose. Arterial blood was collected directly into borosilicate vials (at 4° C.) containing heparin, a protease inhibitor cocktail, potassium fluoride, and EDTA to minimise the potential for ex vivo degradation of the test compound in blood/plasma samples. Once collected, blood samples were centrifuged, supernatant plasma was removed and stored at −20° C., and plasma concentrations of test compound were determined by LCMS.

[2] = tested on: P. falciparum TM4/8.2 (wild type); assay: In vitro anti-plasmodial activity, [3H]-hypoxanthine incorporation; assay type: cell-based, Plasmodium falciparum; details: Plasmodium falciparum, read-out: IC50-P. falciparum TM4/8.2 (WT), TM4/8.2
[3] = Cytotoxicity in mammalian cells; assay type: cell-based; details: African green monkey, Vero cells (African green monkey kidney epithelial cells)
[4] = biological target: T2, Pf DHFR N51I + C59R + S108N (Plasmodium falciparum, UniProt A7UD81, C59R/N51I/S108N); assay: biochemical
T2 construct: made in house; host or cells: E. coli BL21(DE3)pLysS
T2 sequence (A7UD81 whole entry N51I/C59R/S108N): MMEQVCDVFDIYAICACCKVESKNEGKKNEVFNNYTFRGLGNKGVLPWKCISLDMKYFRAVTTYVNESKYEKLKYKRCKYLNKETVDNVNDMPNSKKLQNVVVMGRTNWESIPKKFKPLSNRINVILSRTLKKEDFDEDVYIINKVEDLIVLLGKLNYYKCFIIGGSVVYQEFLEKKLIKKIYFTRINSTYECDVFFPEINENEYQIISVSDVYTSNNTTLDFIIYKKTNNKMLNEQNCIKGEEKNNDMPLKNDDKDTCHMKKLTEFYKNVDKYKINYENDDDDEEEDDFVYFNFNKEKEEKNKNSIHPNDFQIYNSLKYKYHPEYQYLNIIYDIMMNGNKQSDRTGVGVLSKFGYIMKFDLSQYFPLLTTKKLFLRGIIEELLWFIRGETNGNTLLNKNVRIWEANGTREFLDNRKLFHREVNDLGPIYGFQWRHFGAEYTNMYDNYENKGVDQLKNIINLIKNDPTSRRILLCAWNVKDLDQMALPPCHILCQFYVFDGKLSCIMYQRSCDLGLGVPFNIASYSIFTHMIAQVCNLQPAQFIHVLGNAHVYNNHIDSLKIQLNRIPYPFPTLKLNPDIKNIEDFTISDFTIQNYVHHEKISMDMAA

P. berghei ANKA = assay: Standard 4-day Peters' test against P. berghei ANKA in mice; assay type: in vivo, Plasmodium berghei; details: oral, lethal non-resistant strain
Protocol: (§1) Briefly, 20 gr CD1 male mice (Charles Rivers, UK) were kept in specific pathogen-free conditions and fed ad libitum. For oral administration, compounds were dissolved in standard suspending formula (SSV) [0.5% sodium carboxymethylcellulose, 0.5% benzyl alcohol, 0.4% Tween 80, 0.9% NaCl (all Sigma)] and for intraperitoneal or subcutaneous administration compounds were dissolved in 0.5% w/v hydroxypropylmethylcellulose, 0.4% v/v Tween 80, 0.5% V/v benzyl alcohol in de-ionised water]. Mice were infected intravenously with 4×10^6 infected red cells and treated orally (p.o.) with 0.2 ml of a solution of the test compounds two hours (day 0) and on days 1, 2 and 3 post-infection. Parasitaemia was determined by microscopic examination of Giemsa stained blood films taken on day 4. Microscopic counts of blood films from each mouse were processed using GraphPad Prism 4 (GraphPad Software, Inc., CA, USA) and expressed as percentages of inhibition from the arithmetic mean parasitaemias of each group in relation to the untreated group. Compounds were tested in an initial screening at 30 mg/kg/day against P. chabaudi AS (non-resistant) over the period described and percentages of inhibition calculated in relation to the untreated controls. Compounds giving 80% inhibition or above were then tested in the same model under a range of doses over the period described in order to obtain dose response curves and calculate their ED50 and ED90 values. […] From the ED90 values is clear that a number of compounds have exquisite activity in this model and are also tested in P. chabaudi ASP and P. berghei ANKA.

Pf DHFR C59R + S108N = biological target: T3, Pf DHFR C59R + S108N (Plasmodium falciparum, UniProt A7UD81, C59R/S108N); assay: biochemical
T3 construct: made in house; host or cells: E. coli BL21(DE3)pLysS
T3 sequence (A7UD81 whole entry C59R/S108N): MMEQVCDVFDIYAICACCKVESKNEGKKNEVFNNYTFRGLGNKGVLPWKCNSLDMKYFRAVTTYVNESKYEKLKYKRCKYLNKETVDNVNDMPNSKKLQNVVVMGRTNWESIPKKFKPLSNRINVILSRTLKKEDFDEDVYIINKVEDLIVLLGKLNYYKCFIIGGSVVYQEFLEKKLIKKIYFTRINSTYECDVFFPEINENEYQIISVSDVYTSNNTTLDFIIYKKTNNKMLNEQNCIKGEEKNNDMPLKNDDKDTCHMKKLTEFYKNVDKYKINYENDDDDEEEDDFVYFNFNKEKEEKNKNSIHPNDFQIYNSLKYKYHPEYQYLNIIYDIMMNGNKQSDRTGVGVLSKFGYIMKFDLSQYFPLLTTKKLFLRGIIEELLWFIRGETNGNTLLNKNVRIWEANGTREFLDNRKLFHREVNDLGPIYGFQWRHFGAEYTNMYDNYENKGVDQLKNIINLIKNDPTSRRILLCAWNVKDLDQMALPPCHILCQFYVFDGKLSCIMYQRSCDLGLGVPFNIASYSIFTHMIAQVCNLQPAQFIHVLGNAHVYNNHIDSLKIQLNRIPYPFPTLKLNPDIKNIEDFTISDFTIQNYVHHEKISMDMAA

[5] = biological target: T4, Pf DHFR C59R + S108N + I164L (Plasmodium falciparum, UniProt A7UD81, C59R/I164L/S108N); assay: biochemical
T4 construct: made in house; host or cells: E. coli BL21(DE3)pLysS
T4 sequence (A7UD81 whole entry C59R/S108N/I164L): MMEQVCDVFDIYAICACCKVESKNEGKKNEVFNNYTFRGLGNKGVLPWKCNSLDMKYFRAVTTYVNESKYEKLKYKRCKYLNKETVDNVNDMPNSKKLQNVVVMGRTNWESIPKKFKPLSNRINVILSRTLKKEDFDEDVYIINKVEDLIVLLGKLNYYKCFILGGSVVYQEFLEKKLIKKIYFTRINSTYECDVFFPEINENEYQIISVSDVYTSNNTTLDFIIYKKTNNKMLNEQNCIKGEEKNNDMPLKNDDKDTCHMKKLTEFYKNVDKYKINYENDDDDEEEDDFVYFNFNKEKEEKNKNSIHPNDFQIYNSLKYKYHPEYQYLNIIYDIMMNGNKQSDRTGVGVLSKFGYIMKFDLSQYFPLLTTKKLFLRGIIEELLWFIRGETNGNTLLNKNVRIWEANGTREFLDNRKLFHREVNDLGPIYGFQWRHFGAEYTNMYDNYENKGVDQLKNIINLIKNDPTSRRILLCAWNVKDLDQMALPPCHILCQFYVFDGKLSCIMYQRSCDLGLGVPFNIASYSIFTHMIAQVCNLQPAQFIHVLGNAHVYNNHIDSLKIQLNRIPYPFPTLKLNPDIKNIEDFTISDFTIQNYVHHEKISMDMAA

P. chabaudi AS = assay: Standard 4-day Peters' test against P. chabaudi AS in mice; assay type: in vivo, Plasmodium chabaudi; details: Plasmodium chabaudi, 96 h, oral, 4-day Peters' test; for ED50: 50% reduction in parasitaemia; for ED90: 90% reduction in parasitaemia
Protocol: as §1

P. chabaudi ASP = assay: Standard 4-day Peters' test against P. chabaudi ASP (pyrimethamine-resistant) in mice; assay type: in vivo, Plasmodium chabaudi
Protocol: as §1

[6] = biological target: T5, Pf DHFR N51I + C59R + S108N + I164L (Plasmodium falciparum, UniProt A7UD81, C59R/I164L/N51I/S108N); assay: biochemical
T5 construct: made in house; host or cells: E. coli BL21(DE3)pLysS
T5 sequence (A7UD81 whole entry N51I/C59R/S108N/I164L): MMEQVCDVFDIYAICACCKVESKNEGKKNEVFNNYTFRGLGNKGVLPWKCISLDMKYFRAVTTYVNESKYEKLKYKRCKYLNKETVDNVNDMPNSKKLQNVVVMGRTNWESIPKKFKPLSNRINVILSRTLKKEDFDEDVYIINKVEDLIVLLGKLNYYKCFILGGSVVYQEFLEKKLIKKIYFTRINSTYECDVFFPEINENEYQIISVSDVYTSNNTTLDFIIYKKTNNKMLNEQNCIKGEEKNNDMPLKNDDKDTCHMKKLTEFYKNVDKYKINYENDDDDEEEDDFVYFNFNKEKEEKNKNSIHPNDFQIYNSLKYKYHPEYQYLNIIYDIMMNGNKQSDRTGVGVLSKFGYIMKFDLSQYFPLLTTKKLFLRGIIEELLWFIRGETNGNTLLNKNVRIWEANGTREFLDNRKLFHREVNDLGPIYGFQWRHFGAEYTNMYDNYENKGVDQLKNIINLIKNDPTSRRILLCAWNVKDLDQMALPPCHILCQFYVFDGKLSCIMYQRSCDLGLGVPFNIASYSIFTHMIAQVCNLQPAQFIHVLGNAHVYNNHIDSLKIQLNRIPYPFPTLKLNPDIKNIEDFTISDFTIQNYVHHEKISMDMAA

S. aureus = assay: Antibacterial activity, minimal inhibitory concentration on agar plates; assay type: cell-based; details: Staphylococcus aureus; complete inhibition of growth on agar plates
E. coli = assay: as above; assay type: cell-based; details: Escherichia coli; complete inhibition of growth on agar plates

T1 sequence (A7UD81 1-608): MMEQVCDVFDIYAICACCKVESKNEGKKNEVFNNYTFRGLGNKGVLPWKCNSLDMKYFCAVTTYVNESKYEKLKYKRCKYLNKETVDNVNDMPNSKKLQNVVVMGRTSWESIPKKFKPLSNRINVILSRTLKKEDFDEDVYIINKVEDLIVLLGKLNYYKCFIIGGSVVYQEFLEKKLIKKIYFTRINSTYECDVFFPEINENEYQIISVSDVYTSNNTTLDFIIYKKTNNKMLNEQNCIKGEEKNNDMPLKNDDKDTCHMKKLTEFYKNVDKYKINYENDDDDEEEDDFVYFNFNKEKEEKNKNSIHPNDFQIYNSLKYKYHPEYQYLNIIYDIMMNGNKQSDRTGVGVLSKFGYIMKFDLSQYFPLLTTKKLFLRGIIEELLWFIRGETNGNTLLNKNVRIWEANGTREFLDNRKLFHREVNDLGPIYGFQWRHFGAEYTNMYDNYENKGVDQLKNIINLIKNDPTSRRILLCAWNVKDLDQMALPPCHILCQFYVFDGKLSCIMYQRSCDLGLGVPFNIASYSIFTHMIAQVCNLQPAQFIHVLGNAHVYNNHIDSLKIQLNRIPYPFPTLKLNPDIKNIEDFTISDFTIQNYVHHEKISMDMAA

Structure (SMILES) | Ki (Pf DHFR WT) | Oral BA [1] | IC50 [2] | IC50 [3] | Ki [4] | ED50 (P. berghei ANKA; Plasmodium berghei) | ED90 P. berghei ANKA (P. berghei ANKA) | Ki (Pf DHFR C59R + S108N) | Ki [5] | ED50 (P. chabaudi AS) | ED90 (P. chabaudi AS) | ED50 (P. chabaudi ASP; Plasmodium chabaudi, po, read-out: ED50 P. chabaudi ASP) | ED90 P. chabaudi ASP (P. chabaudi ASP; oral, pyrimethamine-resistant strain) | Ki [6] | Vd ([1]; rat, plasma) | clearance ([1]; rat, plasma, iv, i.v. dosing) | MIC (S. aureus) | MIC (E. coli) | half-life ([1]; rat, plasma, iv, i.v. dosing, read-out: i.v. t1/2 (converted))
CCc1nc(N)nc(N)c1OCCCOc1ccnc2ccccc12 [Compound P113, 2,4-diamino-6-ethyl-5-(3-(quinolin-4-yloxy)propoxy)pyrimidine] | 1.21 ± 0.17 nM | <2.0 % of dose | 4 ± 3 nM | 119 nM | 1.82 ± 0.17 nM | 0.01 mg/kg | 0.03 mg/kg | 1.86 ± 0.11 nM | 3.06 ± 0.21 nM | 0.006 mg/kg | 0.01 mg/kg | 0.003 mg/kg | 0.01 mg/kg | 4.33 ± 0.28 nM |  |  |  |  | 
CCc1nc(N)nc(N)c1OCCCOc1ccccc1OCCCC(=O)O [Compound P135, 2,4-diamino-6-ethyl-5-(3-(2-(3-carboxypropoxy)phenoxy)propoxy)pyrimidine] | 0.72 ± 0.03 nM | 7.0 % of dose | 1.6 ± 0.6 nM | > 10000 nM | 1.2 ± 0.05 nM |  |  | 0.98 ± 0.003 nM | 2.54 ± 0.04 nM | 2 mg/kg | 5.2 mg/kg |  |  | 3.47 ± 0.09 nM | 1.6 L/kg | 49.1 mL/min/kg | > 50 µM | > 50 µM | 
CCc1nc(N)nc(N)c1OCCCOc1ccnc2ccc(Cl)cc12 [Compound P149, 2,4-diamino-6-ethyl-5-(3-(6-chloro-quinolin-4-yloxy)propoxy)pyrimidine] | 1.05 ± 0.18 nM | 10 % of dose | 3.2 ± 0.7 nM |  | 3.4 ± 0.15 nM |  |  | 2.37 ± 0.16 nM | 3.66 ± 0.48 nM | 0.01 mg/kg | 0.02 mg/kg |  |  | 4.23 ± 1.06 nM | 51.2 L/kg | 66.3 mL/min/kg | 1 to 10 µM (≈ 0.374 to 3.74 µg/mL) | 10 to 50 µM (≈ 3.74 to 18.7 µg/mL) | 24.3 h

From patent US8530491B2, “Antimalarial compounds with flexible side-chains” (Medicines for Malaria Venture (MMV), priority 2007, dated 2013)
